This note sets out measurements from patent publication US20260042762A1 (Kymera Therapeutics, Inc., priority 2018, published 2026).

In one experiment the target is T1, MerTK (Homo sapiens, UniProt Q12866).
T1 construct: endogenous in cells; host or cells: Jurkat cells
T1 sequence (Q12866 21-999): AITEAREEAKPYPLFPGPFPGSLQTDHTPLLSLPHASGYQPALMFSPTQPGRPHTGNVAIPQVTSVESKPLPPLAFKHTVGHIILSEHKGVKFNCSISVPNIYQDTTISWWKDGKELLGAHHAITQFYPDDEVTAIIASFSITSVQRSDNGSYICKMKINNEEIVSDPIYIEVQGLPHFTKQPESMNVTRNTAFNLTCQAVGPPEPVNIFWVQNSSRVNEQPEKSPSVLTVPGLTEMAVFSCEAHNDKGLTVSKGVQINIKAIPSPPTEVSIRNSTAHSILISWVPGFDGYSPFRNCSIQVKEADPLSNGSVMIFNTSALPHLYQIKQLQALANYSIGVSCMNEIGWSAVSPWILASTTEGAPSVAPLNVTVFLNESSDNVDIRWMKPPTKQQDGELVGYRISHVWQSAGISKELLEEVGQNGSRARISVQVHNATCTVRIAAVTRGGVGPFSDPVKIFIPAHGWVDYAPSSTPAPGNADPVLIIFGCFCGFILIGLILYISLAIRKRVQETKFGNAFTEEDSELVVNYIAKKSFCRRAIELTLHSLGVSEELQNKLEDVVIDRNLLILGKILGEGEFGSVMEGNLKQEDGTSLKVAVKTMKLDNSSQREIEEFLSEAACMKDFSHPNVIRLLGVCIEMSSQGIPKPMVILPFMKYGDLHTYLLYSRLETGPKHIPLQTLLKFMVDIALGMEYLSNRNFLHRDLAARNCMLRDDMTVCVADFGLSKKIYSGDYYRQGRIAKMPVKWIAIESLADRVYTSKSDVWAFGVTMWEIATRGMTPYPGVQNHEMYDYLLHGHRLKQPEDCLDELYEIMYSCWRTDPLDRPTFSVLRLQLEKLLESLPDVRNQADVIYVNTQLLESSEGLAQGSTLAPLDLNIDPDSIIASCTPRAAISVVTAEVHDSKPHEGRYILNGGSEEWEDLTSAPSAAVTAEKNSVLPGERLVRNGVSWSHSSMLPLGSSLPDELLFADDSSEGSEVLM
Nature of the experiment: MerTk degradation in Jurkat cells (Western blot). As to conditions: 0.001-1 μM, 4 hour-incubation at 37° C. It counts as cell-based. The gist of the method: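 MerTK degradation was read by near-infrared Western blot, normalized to actin, in BCA-quantified lysates of Jurkat cells exposed to 0.001-1 μM compound for 4 h at 37 °C.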
For `C[C@H](CC(F)(F)F)Nc1ncc2c(-c3ccc(CN4CCN(CCCO[C@H]5CCN(Cc6ccc7c(c6)n(C)c(=O)n7C6CCC(=O)NC6=O)C5)CC4)cc3)cn([C@H]3CC[C@H](O)CC3)c2n1` (stereo partly drawn) [I-210, 3-(3-methyl-2-oxo-5-[[(3R)-3-(3-[4-[(4-[7-[trans-4-hydroxycyclohexy1]-2-[[(2S)-4,4,4-trifluorobutan-2-yl]amino]pyrrolo[2,3-d]pyrimidin-5-yl]phenyl)methyl]piperazin-1-yl]propoxy)pyrrolidin-1-yl]methyl]-1,3-benzodiazol-1-yl)piperidine-2,6-dione], the “Jurkat Max % MerTK Degradation” value was “C (maximum MerTK degradation less than or equal to 20% (≤20%))”.

Still in this experiment, the particulars now being: Jurkat, 4 h, 0.001-1 μM, 4 hour-incubation at 37° C., read-out: Jurkat Max % MerTK Degradation.
Consider `C[C@H](CC(F)(F)F)Nc1ncc2c(-c3ccc(CN4CCN(CCCOC5CN(Cc6ccc7c(c6)n(C)c(=O)n7C6CCC(=O)NC6=O)C5)CC4)cc3)cn([C@H]3CC[C@H](O)CC3)c2n1` (stereo partly drawn) [I-200, trans-3-(3-methyl-2-oxo-5-[[3-(3-[4-[(4-[7-[4-hydroxycyclohexyl]-2-[[(2R)-4,4,4-trifluorobutan-2-yl]amino]pyrrolo[2,3-d]pyrimidin-5-yl]phenyl)methyl]piperazin-1-yl]propoxy)azetidin-1-y1]methyl]-1,3-benzodiazol-1-y1)piperidine-2,6-dione; tris(formic acid)], for which the Dmax is > 50%.
The same measure, in the same setting: as for `C[C@@H](CC(F)(F)F)Nc1ncc2c(-c3ccc(CN4CCN(CCCOC5CN(Cc6ccc7c(c6)n(C)c(=O)n7C6CCC(=O)NC6=O)C5)CC4)cc3)cn([C@H]3CC[C@H](O)CC3)c2n1` (stereo partly drawn) [I-201, 3-(3-methyl-2-oxo-5-[[3-(3-[4-[(4-[7-[trans-4-hydroxycyclohexy1]-2-[[(2S)-4,4,4-trifluorobutan-2-yl]amino]pyrrolo[2,3-d]pyrimidin-5-y1]phenyl)methyl]piperazin-1-yl]propoxy)azetidin-1-yl]methy1]-1,3-benzodiazol-1-yl)piperidine-2,6-dione; tris(formic acid)], the figure is 20 to 50%; as for `O=C(c1ccc(CNCc2ccc(-c3ccc4c(cnn4CC4CC4)c3)cc2)cc1)N1CCC(C2CCN(Cc3ccc(-c4cn([C@H]5CC[C@H](O)CC5)c5nc(NCCC(F)(F)F)ncc45)cc3)CC2)CC1` [I-202, (4-(((4-(1-(cyclopropylmethyl)-1H-indazol-5-yl)benzyl)amino)methyl)phenyl)(1′-(4-(7-(trans-4-hydroxycyclohexyl)-2-((3,3,3-trifluoropropyl)amino)-7H-pyrrolo[2,3-d]pyrimidin-5-yl)benzyl)-[4,4′-bipiperidin]-1-yl)methanone; formic acid], < 20%.
The same measure, in the same setting: the figure for `CN1CCN(Cc2ccc(-c3ccc(CO[C@H]4CCC[C@@H]4NC(=O)c4cc(-c5cnn(CCOCCOCCOCCCc6ccc7c(c6)n(C)c(=O)n7C6CCC(=O)NC6=O)c5)cnc4N)cc3)cc2)CC1` (stereo partly drawn) [I-203, 2-Amino-5-(1-[2-[2-(2-[3-[1-(2,6-dioxopiperidin-3-yl)-3-methyl-2-oxo-1,3-benzodiazol-5-yl]propoxy]ethoxy)ethoxy]ethyl]pyrazol-4-yl)-N-[(1S,2S)-2-([4-[(4-methylpiperazin-1-yl)methyl]-[1,1-biphenyl]-4-yl]methoxy)cyclopentyl]pyridine-3-carboxamide] is 20 to 50%; for `CN1CCN(Cc2ccc(-c3ccc(CO[C@H]4CCC[C@@H]4NC(=O)c4cc(-c5cnn(CCOCCOCCOCCCc6cccc7c6n(C)c(=O)n7C6CCC(=O)NC6=O)c5)cnc4N)cc3)cc2)CC1` (stereo partly drawn) [I-204, 2-Amino-5-(1-[2-[2-(2-[3-[1-(2,6-dioxopiperidin-3-yl)-3-methyl-2-oxo-1,3-benzodiazol-4-yl]propoxy]ethoxy)ethoxy]ethyl]pyrazol-4-yl)-N-[(1S,2S)-2-([4-[(4-methylpiperazin-1-yl)methyl]-[1,1-biphenyl]-4-yl]methoxy)cyclopentyl]pyridine-3-carboxamide] it is 20 to 50%; for `CCC[C@H](C)Nc1ncc2c(n1)n([C@H]1CC[C@H](O)CC1)cc2[C@H]1CC[C@@H](CN2CCN(C3CC(OCCc4ccc5c(c4)n(C)c(=O)n5C4CCC(=O)NC4=O)C3)CC2)CC1` (stereo partly drawn) [I-206, 3-(3-methyl-2-oxo-5-[2-[3-(4-[cis-4-[2-[(2S)-pentan-2-ylamino]-7-[trans-4-hydroxycyclohexyl]pyrrolo[2,3-d]pyrimidin-5-yl]cyclohexyl]methyl]piperazin-1-yl)cyclobutoxylethyl]-1,3-benzodiazol-1-y1)piperidine-2,6-dione] it is > 50%.
Turning to `CCC[C@H](C)Nc1ncc2c(n1)n([C@H]1CC[C@H](O)CC1)cc2[C@H]1CC[C@@H](CN2CCN(CCCOC3CCN(Cc4ccc5c(c4)n(C)c(=O)n5C4CCC(=O)NC4=O)CC3)CC2)CC1` (stereo partly drawn) [I-207], the Dmax is > 50%.
As for `CCC[C@H](C)Nc1ncc2c(n1)n([C@H]1CC[C@H](O)CC1)cc2[C@H]1CC[C@H](CN2CCN(CCCOC3CCN(Cc4ccc5c(c4)n(C)c(=O)n5C4CCC(=O)NC4=O)CC3)CC2)CC1` (stereo partly drawn) [I-208, 3-[3-methyl-2-oxo-5-([4-[3-(4-[[trans-4-[2-[(2S)-pentan-2-ylamino]-7-[trans-4-hydroxycyclohexyl]pyrrolo[2,3-d]pyrimidin-5-yl]cyclohexyl]methyl]piperazin-1-yl)propoxy]piperidin-1-yl]methyl)-1,3-benzodiazol-1-yl]piperidine-2,6-dione], the Dmax is > 50%.
On the same count and under the same terms, as for `CCC[C@H](C)Nc1ncc2c(n1)n([C@H]1CC[C@H](O)CC1)cc2[C@H]1CC[C@H](CN2CCN(CCCO[C@H]3CCN(Cc4ccc5c(c4)n(C)c(=O)n5C4CCC(=O)NC4=O)C3)CC2)CC1` (stereo partly drawn) [I-211, 3-(3-methyl-2-oxo-5-[[(3S)-3-[3-(4-[[trans-4-[2-[(2S)-pentan-2-ylamino]-7-[trans-4-hydroxycyclohexyl]pyrrolo[2,3-d]pyrimidin-5-yl]cyclohexyl]methyl]piperazin-1-yl)propoxy]pyrrolidin-1-yl]methyl]-1,3-benzodiazol-1-yl)piperidine-2,6-dione], the figure is > 50%; as for `Cc1ncsc1-c1ccc(CNC(=O)[C@@H]2C[C@@H](O)CN2C(=O)[C@@H](NC(=O)C2(F)CC2)C(C)(C)C)c(OCCCCCCN2CCN(Cc3ccc(-c4cn([C@H]5CC[C@H](O)CC5)c5nc(NCCC(F)(F)F)ncc45)cc3)CC2)c1` [I-212, (2S,4R)-1-[(2S)-2-[(1-fluorocyclopropyl)formamido]-3,3-dimethylbutanoyl]-4-hydroxy-N-[[4-(4-methyl-1,3-thiazol-5-yl)-2-[(6-[4-[(4-[7-[trans-4-hydroxycyclohexyl]-2-[(3,3,3-trifluoropropyl)amino]pyrrolo[2,3-d]pyrimidin-5-yl]phenyl)methyl]piperazin-1-yl]hexyl)oxy]phenyl]methyl]pyrrolidine-2-carboxamide], > 50%; as for `Cc1ncsc1-c1ccc(CNC(=O)[C@@H]2C[C@@H](O)CN2C(=O)[C@@H](NC(=O)C2(F)CC2)C(C)(C)C)c(OCCCCCCCN2CCN(Cc3ccc(-c4cn([C@H]5CC[C@H](O)CC5)c5nc(NCCC(F)(F)F)ncc45)cc3)CC2)c1` [I-213, (2S,4R)-1-[(2S)-2-[(1-fluorocyclopropyl)formamido]-3,3-dimethylbutanoyl]-4-hydroxy-N-[[4-(4-methyl-1,3-thiazol-5-yl)-2-[(7-[4-[(4-[7-[trans-4-hydroxycyclohexyl]-2-[(3,3,3-trifluoropropyl)amino]pyrrolo[2,3-d]pyrimidin-5-yl]phenyl)methyl]piperazin-1-yl]heptyl)oxy]phenyl]methyl]pyrrolidine-2-carboxamide], > 50%.
As to `Cc1ncsc1-c1ccc(CNC(=O)[C@@H]2C[C@@H](O)CN2C(=O)[C@@H](NC(=O)C2(F)CC2)C(C)(C)C)c(OCCOCCOCCN2CCN(Cc3ccc(-c4cn([C@H]5CC[C@H](O)CC5)c5nc(NCCC(F)(F)F)ncc45)cc3)CC2)c1` [I-214, (2S,4R)-1-[(2S)-2-[(1-fluorocyclopropyl)formamido]-3,3-dimethylbutanoyl]-4-hydroxy-N-[[4-(4-methyl-1,3-thiazol-5-yl)-2-[2-[2-(2-[4-[(4-[7-[trans-4-hydroxycyclohexyl]-2-[(3,3,3-trifluoropropyl)amino]pyrrolo[2,3-d]pyrimidin-5-yl]phenyl)methyl]piperazin-1-yl]ethoxy)ethoxy]ethoxy]phenyl]methyl]pyrrolidine-2-carboxamide], the Dmax was > 50%.
On the same count and under the same terms, as for `C[C@@H](Nc1ncc2c(-c3ccc(CN4CCN(CCCOCCCc5ccc6c(c5)n(C)c(=O)n6C5CCC(=O)NC5=O)CC4)cc3)cn([C@H]3CC[C@H](O)CC3)c2n1)C(F)F` (stereo partly drawn) [I-215], the figure is > 50%; as for `C[C@H](Nc1ncc2c(-c3ccc(CN4CCN(CCCOCCCc5ccc6c(c5)n(C)c(=O)n6C5CCC(=O)NC5=O)CC4)cc3)cn([C@H]3CC[C@H](O)CC3)c2n1)C(F)F` (stereo partly drawn) [I-216], > 50%.
